Measurements reported in patent US8192753B2, “pH-sensitive cationic lipids, and liposomes and nanocapsules containing the same” (Marina Biotech, Inc., priority 2002, dated 2012).

Assay: Determination of pKa values by titration in 0.5% TRITON-X 100
Details: lipid in 0.5% TRITON-X 100 in water, titrated with 20 mM NaOH from pH 3.0

## 4-(2-aminoethyl)morpholine-di-palmitoylglycerol succinate [#60]
  pKa: 7.2
